# Patent US11541061B2, “Neuroblastoma treatment with taurolidine hydrolysis products” (CorMedix Inc., priority 2016, dated 2023)
# Legend:
# [1] = mean pharmacokinetic parameters of taurinamide and taurultam (FIGS. 10, 11); settings: in vivo; mean pharmacokinetic parameter, weight-based AUC
# Procedure: FIG. 10 is a chart showing the mean pharmacokinetic parameters of taurinamide; and
# FIG. 11 is a chart showing the mean pharmacokinetic parameters of taurultam.
# The taurinamide is given with a dosage range of from 5 mg/kg to 280 mg/kg, with optimal range between 5 mg/kg and 60 mg/kg, from once daily through weekly, for an effective period of time based on individual patient response.
# The taurultam is given with a dosage range of from 5 mg/kg to 280 mg/kg, with optimal range between 5 mg/kg and 60 mg/kg, from once daily through weekly, for an effective period of time based on individual patient response.
# neuroblastoma cell lines = assay: in vitro cell viability of neuroblastoma cell lines (FIG. 2); assay type: cell-based
# From the text: (§1) The IC50 values are between 80-140 microMolar for neuroblastoma cell lines, and 200 microMolar for normal fibroblasts (see FIG. 2).
# healthy fibroblasts (BJ) = assay: in vitro cell viability of healthy fibroblasts (FIG. 2); assay type: cell-based; settings: Fibroblast, normal fibroblasts
# From the text: as §1
# leukemia cell lines = assay: in vitro sensitivity of leukemia cell lines compared to healthy lymphocytes (FIG. 1); assay type: cell-based; settings: leukemia cell lines vs healthy lymphocytes
# IMR5 tumors = assay: IMR5 neuroblastoma tumors implanted subcutaneously in mice (FIGS. 3-6); assay type: in vivo; settings: IMR5 tumors implanted subcutaneously in CB57 SCID mice
# From the text: The efficacy observed with taurolidine treatment of IMR5 cell implants in vivo (FIGS. 3-6), despite IRM5's relatively high IC50 in vitro (FIG. 2), supports the conclusion that the hydrolysis products of taurolidine may have independent anti-neoplastic activity. […] Since it is known that taurolidine metabolizes to taurolidine hydrolysis products in vivo, this would support the conclusion that the hydrolysis products of taurolidine may have significant anti-neoplastic activity against neuroblastoma cells. In fact, it may be that the hydrolysis products of taurolidine have higher efficacy against neuroblastoma cells than taurolidine which has not been hydrolyzed.
# SK-N-AS tumors = assay: SK-N-AS neuroblastoma tumors implanted subcutaneously in mice (FIGS. 3-8); assay type: in vivo, CB57 SCID mice
# [2] = 5 grams intravenously by 20 minute infusion; cited from earlier work
AUC(0-inf) [1],Structure (SMILES),"sensitivity to decrease in viability compared to healthy fibroblasts (neuroblastoma cell lines; neuroblastoma cell lines vs healthy fibroblasts (BJ), in vitro)","IC50 (neuroblastoma cell lines; neuroblastoma cell lines, cell viability in vitro, FIG. 2)","concentration at which in vitro efficacy is seen (neuroblastoma cell lines; neuroblastoma cell lines, highest two concentrations tested, FIG. 2)",IC50 (healthy fibroblasts (BJ)),sensitivity compared to healthy lymphocytes (leukemia cell lines),efficacy in tumors in vivo (IMR5 tumors),efficacy in tumors in vivo (SK-N-AS tumors; SK-N-AS tumors implanted subcutaneously in CB57 SCID mice),"overall survival (SK-N-AS tumors; mice implanted with SK-N-AS tumor, vs control)","tumor size (SK-N-AS tumors; mice with SK-N-AS cell line tumors, vs control)",concentration of taurolidine in healthy volunteers [2]
313 µg·h/mL,"NCCS(N)(=O)=O [Taurinamide, taurinamide]",,,,,,,,,,
,O=S1(=O)CCN(CN2CCS(=O)(=O)NC2)CN1 [taurolidine],more sensitive,80 to 140 µM,above 40 microMolar,200 µM,more sensitive,efficacy,measurable efficacy,not statistically different,Statistically significant decreases,NO measurable concentration
